Assay results: patent US5798375A, “Treatment of arteriosclerosis and xanthoma” (Sankyo Company, Limited, priority 1995, dated 1998)

Legend:
[1] = Example 1: plasma total cholesterol in WHHL rabbits; format: in vivo; conditions: pravastatin 50 mg/kg/day oral gavage, troglitazone in diet containing 100 mg/kg
Protocol: (§1) WHHL rabbits [2-3 months of age, the Watanabe heritable hyperlipidemic rabbit described in Biochimica et Biophysica Acta, 960, 294-302 (1988)] were randomly assigned to a control group (7 animals, group A), a group receiving pravastatin alone (5 animals, Group B), a group receiving troglitazone alone (7 animals, Group C), and a group receiving a combination of both active substances (6 animals, Group D). Pravastatin was administered orally by gavage at a dose of 50 mg/kg/day once-daily and troglitazone was given in the diet, containing 100 mg/kg of the substance for 32 weeks. The ingested amount was limited to a daily 120 g per rabbit. Blood was withdrawn from the animal immediately before starting the study and 4, 8, 12, 16, 20, 24, 28 and 32 weeks after starting the study and the total cholesterol levels (mg/dl) were determined for each blood sample. The levels are reported as a percentage (%) of the levels measured immediately before starting the study. The animals were sacrificed and necropsied at week 32 to examine (a) the percent lesion area (%) in the total, thoracic or abdominal portion of the aorta; (b) the stenosis (%) of the coronary arteries and (c) the incidence (%) of xanthoma in the digital joints.

WHHL rabbits [2] = assay: Example 1: percent lesion area of the aorta in WHHL rabbits; format: in vivo; conditions: week 32, mean ± standard error, pravastatin 50 mg/kg/day, troglitazone in diet containing 100 mg/kg, * p < 0.05 vs control
Protocol: as §1
(§2) The values actually measured are represented as an average value±standard error in those Tables.

WHHL rabbits [3] = assay: Example 1: stenosis of the coronary arteries in WHHL rabbits; format: in vivo; conditions: week 32
Protocol: as §1, §2

WHHL rabbits [4] = assay: Example 1: incidence of xanthoma in the digital joints of WHHL rabbits; format: in vivo
Protocol: as §1, §2

WHHL rabbits [5] = assay: Example 2: percentage area covered by lesions, aortic arch and whole aorta; format: in vivo, Male WHHL rabbits; set-up: Lesion Area, Aortic Arch, percentage against the control group / Lesion Area, Total Aorta, percentage against the control group: concentration or dose not given beside the values; conditions: oral, eight months
Protocol: (§3) Each test compound was administered for eight months to the rabbits in the form of an aqueous suspension (0.5% carboxymethylcellulose added). In the control group, a 0.5% carboxymethylcellulose solution only was administered.
The values actually measured are represented by the mean value plus or minus standard error. The numbers in parentheses represent the percentage lesion area against the control group.
*p<0.05, **p<0.01; significant difference against the control group under the [Mann-Whitney's U-Test A significant difference (p<0.05) was observed between Groups B and F, between Groups C and E and between Groups D and F at the aortic arch, and between Groups C and E over the total aorta.

WHHL rabbits [6] = assay: Example 2: average thickening of intima in aorta; format: in vivo, Male WHHL rabbits; set-up: Average thickening of intima, Aortic Arch, percentage against the control group / Average thickening of intima, Total Aorta, percentage against the control group: concentration or dose not given beside the values
Protocol: as §3
The values actually measured are represented as the mean value plus or minus a standard error (μm). The numbers in parentheses represent the percentage intimal thickening against the control group. A significant difference was observed between Groups D and F at the aortic arch, and between Groups C and E and between Groups D and F over the total aorta (p<0.05) under the Mann-Whitney's U-Test.
The average thickening of the intima is calculated by the cross-sectional area of the aortic tunica intima one section from the arch and two sections from the thoracic and abdominal portions, divided by the length of the tunica media.

WHHL rabbits [7] = assay: Example 2: incidence and degree of xanthoma of the four legs; format: in vivo, Male WHHL rabbits; set-up: Frequency of massive xanthoma: unit not given here
Protocol: as §3
The incidence and the degree of xanthoma of the four legs were measured.

[8] = tested on: Male New Zealand white rabbits; assay: Example 3: regression of established atherosclerotic lesions in the cholesterol-fed rabbit model; format: in vivo; conditions: for Rate of lesion area, against the control group: figure in parentheses; for Rate of lesion area: thoracic aorta, two months, mean ± standard error, control 29 ± 20
Protocol: The rabbits were grouped randomly (3-9 animals per group) and the test samples were administered orally for two months, while they were fed with a normolipidaemic diet. […] The results are shown in terms of the percentage of lesion area in the thoracic aorta.

Male Fl b hamsters = assay: Example 4: regression of preformed atherosclerosis in hamsters (Oil Red O stained area); format: in vivo
Protocol: Synergism of HMG CoA reductase inhibitors and thiazolidinedione insulin sensitizers was examined by another regression model, i.e. the regression of preformed atherosclerosis in hamsters. Male Fl b hamsters (weight about 130 g,) were given a diet containing 0.05% cholesterol for 13 weeks. They were grouped randomly (2-7 animals per group), and then the test samples were administered for 4 weeks while the hamsters were given a normolipidaemic diet. Pravastatin and fluvastatin were mixed with drinking water at the dose of 3 mg/kg and 1.5 mg/kg, respectively, while troglitazone was mixed with the diet at the dose of 30 mg/kg or 100 mg/kg.
In the case of the combination groups, the dosage was 3 mg/kg+30 mg/kg or 3 mg/kg+100 mg/kg for the pravastatin+troglitazone group, and 1.5 mg/kg+30 mg/kg for the fluvastatin+troglitazone group.
Namely, the aortic arch was stained with ORO to prepare en face specimens. The percentage area which was positive to the ORO stain over the whole area was measured to represent the degree of aortic lesion.

[9] = tested on: coronary arteriosclerosis and xanthoma; conditions: literature: Biochim. Biophys. Acta 960, 294-302 (1988); Atherosclerosis 83, 69-80 (1990); cited from earlier work
[10] = oral, eight months, control 100 (14/14), *p < 0.05, **p < 0.01 vs control

CC[C@H](C)C(=O)O[C@H]1C[C@H](O)C=C2C=C[C@H](C)[C@H](CC[C@@H](O)C[C@@H](O)CC(=O)O)[C@H]21 [Pravastatin, sodium 1,2,6,7,8,8a-hexahydro-6,8-tetrahydroxy-2-methyl-1-naphthaleneheptanoate]
total cholesterol level, % of level before starting the study ([1]; week 4): 87%
total cholesterol level, % of level before starting the study ([1]; week 8): 87%
total cholesterol level, % of level before starting the study ([1]; week 12): 81%
total cholesterol level, % of level before starting the study ([1]; week 16): 81%
total cholesterol level, % of level before starting the study ([1]; week 20): 75%
total cholesterol level, % of level before starting the study ([1]; week 24): 68%
total cholesterol level, % of level before starting the study ([1]; week 28): 68%
total cholesterol level, % of level before starting the study ([1]; week 32): 60%
Lesion area, Abdominal aorta (WHHL rabbits [2]; control 29.9 ± 4.4): 28.2 ± 8.1%
Lesion Area, Total Aorta (WHHL rabbits [2]; control 65.7 ± 3.9): 53.8 ± 8.2%
Lesion area, Thoracic aorta (WHHL rabbits [2]; control 79.3 ± 5.4): 64.6 ± 10.4%
Coronary stenosis, RCA (right coronary artery) (WHHL rabbits [3]; control 13): 18%
Coronary stenosis, LAD (left anterior descending artery) (WHHL rabbits [3]; control 24): 16%
Coronary stenosis, LSP (left septal artery) (WHHL rabbits [3]; control 40): 9%
Coronary stenosis, LCX (left circumflex artery) (WHHL rabbits [3]; control 47): 34%
Coronary stenosis, MLC (main left coronary artery) (WHHL rabbits [3]; control 61): 71%
Coronary stenosis, MRC (main right coronary artery) (WHHL rabbits [3]; control 79): 81%
Incidence of xanthoma, Foreleg (WHHL rabbits [4]; week 32, control 100 (14/14)): 80%
Incidence of xanthoma, Hind leg (WHHL rabbits [4]; week 32, control 100 (14/14)): 80%
Incidence of xanthoma, Total (WHHL rabbits [4]; week 32, control 100 (28/28)): 80%
Lesion Area, Aortic Arch, percentage against the control group (WHHL rabbits [5]; number in parentheses): 72%
Lesion Area, Total Aorta, percentage against the control group (WHHL rabbits [5]; number in parentheses): 70%
Lesion Area, Total Aorta (WHHL rabbits [5]; pravastatin 50, pioglitazone 20, Compound A 10 mg/kg, mean ± standard error, *p<0.05, **p<0.01 vs control): 35 ± 6%
Lesion Area, Aortic Arch (WHHL rabbits [5]; pravastatin 50, pioglitazone 20, Compound A 10 mg/kg, mean ± standard error, control 82 ± 5, *p<0.05, **p<0.01 vs control): 59 ± 11%
suppression of intimal thickening (WHHL rabbits [6]; combinations compared with Groups C and D): slight suppression of intimal thickening
Average thickening of intima, Aortic Arch, percentage against the control group (WHHL rabbits [6]; number in parentheses): 82%
Average thickening of intima, Total Aorta, percentage against the control group (WHHL rabbits [6]; number in parentheses): 82%
Average thickening of intima in aorta, Total Aorta (WHHL rabbits [6]; oral, eight months, pravastatin 50, pioglitazone 20, Compound A 10 mg/kg, mean ± standard error, control 154 ± 33): 126 ± 22 μm
Average thickening of intima in aorta, Aortic Arch (WHHL rabbits [6]; oral, eight months, pravastatin 50, pioglitazone 20, Compound A 10 mg/kg, mean ± standard error, control 237 ± 63): 194 ± 42 μm
Frequency of massive xanthoma (WHHL rabbits [7]; control 57, *p < 0.05, **p < 0.01 vs control): 42
incidence of xanthoma (WHHL rabbits [7]; forelegs and hindlegs): slightly less frequent incidence of xanthoma
Distribution of severity of lesion: (-) no lesions (WHHL rabbits [7]; number of legs, control 0): 3
Distribution of severity of lesion: (+++) severe lesion (WHHL rabbits [7]; number of legs, control 6): 2
Distribution of severity of lesion: (++) moderate lesion (WHHL rabbits [7]; number of legs, control 10): 8
Distribution of severity of lesion: (+) slight lesion (WHHL rabbits [7]; number of legs, control 12): 11
Incidence of xanthoma, Forelegs (WHHL rabbits [7]; [10]): 100%
Incidence of xanthoma, Hindlegs (WHHL rabbits [7]; [10]): 75%
Incidence of xanthoma, Total (WHHL rabbits [7]; oral, eight months, control 100 (28/28), *p < 0.05, **p < 0.01 vs control): 88%
Rate of lesion area, against the control group ([8]; 3 mg/kg): 103
Rate of lesion area, against the control group ([8]; 5 mg/kg): 79
Rate of lesion area ([8]; 3 mg/kg oral): 30 ± 12%
Rate of lesion area ([8]; 5 mg/kg oral): 23 ± 9%
Stained Area, % of Control (Male Fl b hamsters; 3 mg/kg): 106%
Stained Area ORO (Male Fl b hamsters; aortic arch, 3 mg/kg in drinking water, 4 weeks, control 1.82 ± 0.44): 1.93 ± 0.33%
regression of aortic lesions (Male Fl b hamsters; pravastatin 3 mg/kg, fluvastatin 1.5 mg/kg, troglitazone 30 mg/kg alone, combinations): no regression of aortic lesions
prevention of coronary arteriosclerosis and xanthoma, efficacy [9]: may be prevented in rabbits receiving pravastatin, but its efficacy remains insufficient
